In patent US6436905B1, “Lipid-containing compositions and uses thereof” (Aston University, priority 1997, dated 2002):
One block for each compound: values may come before it.

Assay: Pulsating bubble surfactometry: minimum surface tension and time to reach it
Type: physicochemical
Description: One of the most important properties of the polymer/phospholipid complexes in accordance with the invention, especially for use as artificial lung surfactants, is the manner in which the surface tension varies with repetitive changes in surface area, and one test method that has been used is a pulsating bubble technique using a pulsating bubble surfactometer which consists of a sample chamber, pulsator unit and pressure-recording device. In a particular example, the sample chamber is made up of a capillary tube (ID 0.5 mm) inserted into a wider diameter tube (ID 1.5 mm). The latter is filled with the sample liquid and connected to a pulsator unit and pressure transducer. Air is drawn in through the capillary tube which acts as an airways forming a bubble of air within the sample chamber. This bubble serves as a model alveolus. […] Variations of pressure within the bubble, during each pulsation cycle, are measured by a transducer and combined with values of bubble volume to calculate changes in surface tension.
This pulsating bubble technique simulates to some extent the contraction and expansion of the alveoli sacks in the lungs and allows the surface tension to be assessed at minimum and maximum bubble volumes, and allows the effect of repeated expansion and compression cycles upon the adsorption of surface active components to be observed and quantified. This technique has been used as a model in vitro system for testing the efficacy of synthetic lung surfactants. Some results of tests carried out not only on the complexes prepared in accordance with the invention, but also on the membrane-forming phospholipids used and the polymers themselves, as well as on commercially available lung surfactants, are summarised in the Tables at the end of the present description.
Showing minimum Surface Tension (ST) value achieved and time to reach this level.
Pulse Rate (PR)=34, Temp=Room Temp & pH=7.0 unless otherwise stated.

[1] = 1.0%, pH 3.22, PR = 12, room temp
[2] = 1.0%, pH 7.0 (default), PR 34, room temp, 2 hrs hydration
[3] = 1.0%, pH 7.0 (default), PR 34, room temp, 12 hr hydration
[4] = 1.0%, pH 9.33, PR = 12, room temp
[5] = 1.0%, pH 12.00, PR 34, room temp
[6] = […], pH 7.0 (default), PR 34, room temp, Sonicated
[7] = LALE 1.0%, pH 7.0 (default), PR 34, room temp
[8] = DLPC (fresh) sonicated 0.5, pH 3.92, 24.0 °C, pulse rate 30/min
[9] = DLPC (fresh) 0.5, pH 7.12, 25.1 °C, pulse rate 30/min
[10] = DPPC 0.5, pH 4.1, 21.9 °C, pulse rate 30/min
[11] = DPPC (fresh) 0.5, pH 6.3, 24.9 °C, pulse rate 30/min
[12] = DPPC sonicated 0.5, pH 7.3, 23.1 °C, pulse rate 30/min
[13] = DPPC sonicated 0.5, pH 7.3, 37.5 °C, pulse rate 30/min
[14] = DPPC sonicated 0.5, pH 7.3, 24.0 °C, pulse rate 30/min
[15] = DPPC sonicated 0.5, pH 7.3, 37.5 °C, after 40 mins at room temp, pulse rate 30/min

Structure (SMILES): CCCCCCCCCCCC(=O)OC[C@H](COP(=O)([O-])OCC[N+](C)(C)C)OC(=O)CCCCCCCCCCC [DLPC, Dilaurylphosphatidylcholine]
Minimal ST [1]: 6.39 dynes/cm | Time to Develop [1]: 30 min | Minimal ST [2]: 6.82 dynes/cm | Time to Develop [2]: 20 min | Minimal ST [3]: 24.89 dynes/cm | Time to Develop [3]: 30 min | Minimal ST [4]: 15.66 dynes/cm | Time to Develop [4]: 30 min | Minimal ST [5]: 15.10 dynes/cm | Time to Develop [5]: 30 min | Minimal ST [6]: 9.60 dynes/cm | Time to Develop [6]: 30 min

Structure (SMILES): CCCCCCCCCCCC(=O)OC[C@H](COP(=O)([O-])OCC[N+](C)(C)C)OC(=O)CCCCCCCCCCC [dlf5]
Time to Develop (DLPC (fresh) 0.5, pH 5.47, 24.0 °C, pulse rate 30/min, first line): 20 min | Minimal ST <10 dynes/cm (DLPC (fresh) 0.5, pH 5.47, 24.0 °C, pulse rate 30/min, first line (time 20)): 12.57 dynes/cm | Time to Develop (DLPC (fresh) 0.5, pH 5.47, 24.0 °C, pulse rate 30/min, second line): 40 min | Minimal ST <10 dynes/cm (DLPC (fresh) 0.5, pH 5.47, 24.0 °C, pulse rate 30/min, second line (time 40)): 0.04 dynes/cm

Structure (SMILES): CCCCCCCCCCCC(=O)OC[C@H](COP(=O)([O-])OCC[N+](C)(C)C)OC(=O)CCCCCCCCCCC [dlfs4]
Minimal ST <10 dynes/cm [8]: 1.67 dynes/cm | Time to Develop [8]: 10 min

Structure (SMILES): CCCCCCCCCCCC(=O)OC[C@H](COP(=O)([O-])OCC[N+](C)(C)C)OC(=O)CCCCCCCCCCC [dlfs7]
Minimal ST <10 dynes/cm [9]: 18.25 dynes/cm | Time to Develop [9]: 20 min

Further lines, results first:

Minimal ST [7]: 22.61 dynes/cm | Time to Develop [7]: 30 min
Structure (SMILES): CCCCCCCCCCCCOC(=O)CCCCCCCCCCC [LALE, Lauric acid lauryl ester]

Minimal ST <10 dynes/cm [10]: 5.31 dynes/cm | Time to Develop [10]: 30 min
Structure (SMILES): CCCCCCCCCCCCCCCC(=O)OC[C@H](COP(=O)([O-])OCC[N+](C)(C)C)OC(=O)CCCCCCCCCCCCCCC [dlpf4]

Minimal ST <10 dynes/cm [11]: 16.18 dynes/cm | Time to Develop [11]: 30 min
Structure (SMILES): CCCCCCCCCCCCCCCC(=O)OC[C@H](COP(=O)([O-])OCC[N+](C)(C)C)OC(=O)CCCCCCCCCCCCCCC [dlpf6]

Minimal ST <10 dynes/cm [12]: 20.36 dynes/cm | Time to Develop [12]: 40 min
Structure (SMILES): CCCCCCCCCCCCCCCC(=O)OC[C@H](COP(=O)([O-])OCC[N+](C)(C)C)OC(=O)CCCCCCCCCCCCCCC [dlpf7]

Minimal ST <10 dynes/cm [13]: 26.58 dynes/cm | Time to Develop [13]: 2 min
Structure (SMILES): CCCCCCCCCCCCCCCC(=O)OC[C@H](COP(=O)([O-])OCC[N+](C)(C)C)OC(=O)CCCCCCCCCCCCCCC [dp7st]

Minimal ST <10 dynes/cm [14]: 9.99 dynes/cm | Time to Develop [14]: 20 min | Minimal ST <10 dynes/cm [15]: 27.95 dynes/cm | Time to Develop [15]: 40 min
Structure (SMILES): CCCCCCCCCCCCCCCC(=O)OC[C@H](COP(=O)([O-])OCC[N+](C)(C)C)OC(=O)CCCCCCCCCCCCCCC [dpf7s]
